Results published in patent publication US10246439B2, “Apoptosis signal-regulating kinase 1 inhibitors and methods of use thereof” (ENANTA PHARMACEUTICALS, INC., priority 2017, dated 2019).

Target: T1, ASK1 (Homo sapiens, UniProt Q99683)
T1 construct: purchased Thermofisher PV4011
T1 sequence (Q99683 1-1374): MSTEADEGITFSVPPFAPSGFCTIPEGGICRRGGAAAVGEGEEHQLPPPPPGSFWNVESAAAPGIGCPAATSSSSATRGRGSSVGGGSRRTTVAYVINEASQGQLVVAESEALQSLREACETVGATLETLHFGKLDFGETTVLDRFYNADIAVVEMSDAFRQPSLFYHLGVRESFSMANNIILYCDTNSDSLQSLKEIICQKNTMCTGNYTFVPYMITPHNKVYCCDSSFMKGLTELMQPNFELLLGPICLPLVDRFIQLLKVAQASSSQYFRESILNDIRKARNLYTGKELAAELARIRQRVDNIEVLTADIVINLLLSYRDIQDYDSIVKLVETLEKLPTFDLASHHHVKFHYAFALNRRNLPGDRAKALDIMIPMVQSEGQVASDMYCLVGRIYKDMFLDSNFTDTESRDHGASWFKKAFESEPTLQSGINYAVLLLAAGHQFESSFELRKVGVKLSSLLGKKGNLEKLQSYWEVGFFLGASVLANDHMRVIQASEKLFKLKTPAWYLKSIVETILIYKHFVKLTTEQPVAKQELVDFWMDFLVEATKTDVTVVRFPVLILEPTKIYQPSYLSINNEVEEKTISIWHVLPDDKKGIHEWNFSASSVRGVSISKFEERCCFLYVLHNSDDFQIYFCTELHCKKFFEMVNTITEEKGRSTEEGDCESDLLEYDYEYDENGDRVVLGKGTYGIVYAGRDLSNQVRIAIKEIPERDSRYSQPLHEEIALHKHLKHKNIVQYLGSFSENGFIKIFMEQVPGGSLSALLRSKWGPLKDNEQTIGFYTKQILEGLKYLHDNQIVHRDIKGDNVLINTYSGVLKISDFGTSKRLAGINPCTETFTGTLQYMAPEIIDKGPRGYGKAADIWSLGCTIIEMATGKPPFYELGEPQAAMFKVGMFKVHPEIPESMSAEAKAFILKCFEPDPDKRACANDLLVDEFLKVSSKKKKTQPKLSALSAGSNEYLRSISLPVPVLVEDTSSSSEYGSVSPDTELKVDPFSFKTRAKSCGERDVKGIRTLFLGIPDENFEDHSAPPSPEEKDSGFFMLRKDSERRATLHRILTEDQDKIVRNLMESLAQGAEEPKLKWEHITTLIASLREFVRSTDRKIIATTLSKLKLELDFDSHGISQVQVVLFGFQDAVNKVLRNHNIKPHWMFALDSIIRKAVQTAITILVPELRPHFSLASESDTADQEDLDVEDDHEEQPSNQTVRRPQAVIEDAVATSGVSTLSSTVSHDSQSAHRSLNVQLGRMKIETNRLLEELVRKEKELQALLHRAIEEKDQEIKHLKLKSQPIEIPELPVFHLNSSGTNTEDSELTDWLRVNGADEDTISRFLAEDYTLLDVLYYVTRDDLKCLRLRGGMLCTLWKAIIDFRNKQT
Assay: HTRF KinEASE-STK TR-FRET kinase assay, inhibition of ASK1
Assay type: biochemical
Details: 5 nM ASK1, 1 uM STK3 peptide substrate, 100 uM ATP
Protocol: ASK1 was purchased from Thermofisher (Catalogue # PV4011), ATP was purchased from Sigma (Catalogue # A7699), HTRF® KinEASE™ Assay System was obtained from Cisbio (Bedford, Mass.). ½ Area plate was purchased from Perkin Elmer (Catalogue # #6005560). HTRF® KinEASE™-STK is a generic method for measuring serine/threonine kinase activities using a time-resolved fluorescence resonance energy transfer (TR-FRET) immunoassay. The IC50 value for each compound was determined in the presence of compound (various concentration from 0 to 10 μM) and a fixed amount of ATP and peptide substrates. The test compound, 1 uM STK3 peptide substrate, and 5 nM of ASK1 kinase are incubated with kinase reaction buffer containing 50 mM HEPES pH 7.5, 0.01% BRIJ-35, 10 mM MgCl2, and 1 mM EGTA for 30 minutes. 100 uM ATP is added to start kinase reaction and incubated for 3 hours. The STK3-antibody labeled with Eu^3+-Cryptate and 125 nM streptavidin-XL665 are mixed in a single addition with stop reagents provided by the Cisbio kit used to stop the kinase reaction. Fluorescence is detected using an Envision Multilabeled 2014 reader from PerkinElmer. The Fluorescence is measured at 615 nm (Cryptate) and 665 nm (XL665) and a ratio of 665 nm/615 nm is calculated for each well. The resulting TR-FRET is proportional to the phosphorylation level. Staurosporine was used as the positive control. IC50 was determined by XLfit 5.3.

| Compound | IC50 |
| --- | --- |
| CC(C)n1cnnc1-c1cccc(NC(=O)c2ccc3nc(N4CCC(C)(C)CC4)sc3c2)n1 [Example 54] | > 1 µM |
| CC(C)n1cnnc1-c1cccc(NC(=O)c2ccc3nc(N4C5CCCC4CC5)sc3c2)n1 [Example 51] | 0.01 to 0.1 µM |
| CC(C)Nc1nc2ccc(C(=O)Nc3cccc(-c4nncn4C(C)C)n3)cc2s1 [Example 56] | 0.1 to 1 µM |
| CC(C)n1nnnc1-c1cccc(NC(=O)c2cc3sc(NC4CCCCC4)nc3cc2F)n1 [Example 34] | > 1 µM |
| CC(C)n1nnnc1-c1cccc(NC(=O)c2cc3sc(C4CCC4)nc3cn2)n1 [Example 69] | > 1 µM |
| CC(C)n1nnnc1-c1cccc(NC(=O)c2cc3sc(N4CCN(C5CC5)CC4)nc3cc2F)n1 [Example 42] | > 1 µM |
| CC(C)n1cnnc1-c1cccc(NC(=O)c2cc3sc(N(C)C)nc3cn2)n1 [Example 64] | 0.01 to 0.1 µM |
| CC(C)n1cnnc1-c1cccc(NC(=O)c2cc3sc(N4CCN(C(C)(C)C)CC4)nc3cc2F)n1 [Example 15] | 0.01 to 0.1 µM |
| CCCCNc1nc2cc(F)c(C(=O)Nc3cccc(-c4nnnn4C(C)C)n3)cc2s1 [Example 40] | > 1 µM |
| CC(C)n1cnnc1-c1cccc(NC(=O)c2ccc3nc(N4CC5CC5C4)sc3c2)n1 (centres unmarked) [Example 52] | 0.01 to 0.1 µM |
| CC(C)n1cnnc1-c1cccc(NC(=O)c2ccc3ncsc3c2)n1 [Example 2, N-(6-(4-isopropyl-4H-1,2,4-triazol-3-yl)pyridin-2-yl)benzo[d]thiazole-6-carboxamide] | 0.1 to 1 µM |
| CC(C)n1nnnc1-c1cccc(NC(=O)c2cc3sc(N4CCOCC4)nc3cn2)n1 [Example 72] | > 1 µM |
| CNc1nc2cc(F)c(C(=O)Nc3cccc(-c4nncn4C(C)C)n3)cc2s1 [Example 49, 5-fluoro-N-(6-(4-isopropyl-4H-1,2,4-triazol-3-yl)pyridin-2-yl)-2-(methylamino)benzo[d]thiazole-6-carboxamide] | 0.001 to 0.01 µM |
| CC(C)n1cnnc1-c1cccc(NC(=O)c2ccc3nc(-c4ccccc4)sc3c2)n1 [Example 22] | 0.1 to 1 µM |
| CC(C)n1cnnc1-c1cccc(NC(=O)c2cc3sc(N4CCCCC4)nc3cn2)n1 [Example 66, N-(6-(4-isopropyl-4H-1,2,4-triazol-3-yl)pyridin-2-yl)-2-(piperidin-1-yl)thiazolo[4,5-c]pyridine-6-carboxamide] | 0.001 to 0.01 µM |
| CC(C)n1nnnc1-c1cccc(NC(=O)c2cc3sc(N(C)CC4CC4)nc3cc2F)n1 [Example 39] | > 1 µM |
| CC(C)n1cnnc1-c1cccc(NC(=O)c2cc3sc(C4CCC4)nc3cc2F)n1 [Example 37] | 0.01 to 0.1 µM |
| CC(C)n1nnnc1-c1cccc(NC(=O)c2cc3sc(N4CCOCC4)nc3cc2F)n1 [Example 46] | 0.01 to 0.1 µM |
| CC(C)n1cnnc1-c1cccc(NC(=O)c2ccc3nc(N4CCN(C(C)(C)C)CC4)sc3c2)n1 [Example 59] | 0.01 to 0.1 µM |
| CC(C)n1cnnc1-c1cccc(NC(=O)c2ccc3nc(N(C)C)sc3c2)n1 [Example 23] | 0.01 to 0.1 µM |
| CC(C)n1cnnc1-c1cccc(NC(=O)c2ccc3nc(N4CCC(C(C)(C)C)CC4)sc3c2)n1 [Example 25] | 0.1 to 1 µM |
| CC(C)n1cnnc1-c1cccc(NC(=O)c2cc3sc(N(C)C4CCCCC4)nc3cc2F)n1 [Example 8] | 0.001 to 0.01 µM |
| CC(C)n1cnnc1-c1cccc(NC(=O)c2ccc3nc(N4CCC(F)(F)CC4)sc3c2)n1 [Example 19] | 0.01 to 0.1 µM |
| CC(C)n1cnnc1-c1cccc(NC(=O)c2ccc3ncn(C)c3c2)n1 [Example 1, N-(6-(4-isopropyl-4H-1,2,4-triazol-3-yl)pyridin-2-yl)-1-methyl-1H-benzo[d]imidazole-6-carboxamide] | 0.1 to 1 µM |
| CC(C)n1nnnc1-c1cccc(NC(=O)c2cc3sc(N4CCN(C(C)(C)C)CC4)nc3cc2F)n1 [Example 3, 2-(4-(tert-butyl)piperazin-1-yl)-5-fluoro-N-(6-(1-isopropyl-1H-tetrazol-5-yl)pyridin-2-yl)benzo[d]thiazole-6-carboxamide] | > 1 µM |
| CC(C)n1nnnc1-c1cccc(NC(=O)c2cc3sc(N(C)C4CCCCC4)nc3cc2F)n1 [Example 44] | > 1 µM |
